According to a melting point compilation (Tetko et al.; mined from patent text by program, amines drawn as free bases though some values may be those of a salt):

`Cc1ccncc1-c1cncc(OC2SCC(O)C(O)C2O)c1` (centres undefined) gave a melting point of 201 °C. With `COc1ccc2c(c1)c(CCNC(C)=O)cn2S(=O)(=O)c1ccccc1` the melting point was 140 to 141 °C. With `CCCN1CC=C(c2ccc(Cl)cc2)C(C(=O)OCc2ccccc2)C1` (centres undefined) the melting point was 75 to 76.5 °C. `O=C(NC1CCOCC1)c1cccc(-c2cccc3cc(Cc4cc(F)cc(Cl)c4)sc23)c1` gave a melting point of 127 to 128 °C. Compound `O=C(Nc1ccc(OCCN2CCOCC2)c2ccccc12)c1cc(F)cc(OC2CCOCC2)c1` has a melting point of 75 to 77 °C. `O=C(Nc1ccccc1)OC1C=CC2COC1O2` (centres undefined) showed a melting point of 107 to 109 °C. For `OCCN(Cc1ccccc1)CC1(O)CCN(CCCc2c[nH]c3ccc(-n4cnnc4)cc23)CC1`, the melting point was 75 to 78 °C. `O=C(c1ccc(Cl)cc1)c1ccc(CS(=O)(=O)C(F)F)cc1` showed a melting point of 154 to 157 °C. `COc1ccccc1CC(=O)N1C[C@@H]2[C@H](F)CCC(c3ccccc3)(c3ccccc3)[C@@H]2C1` gave a melting point of 205 °C. Work on `O=C(O)C1C2OCCC21Br` (mixture of isomers) yielded a melting point of 196 to 198 °C. Compound `Cn1cccc1C(=O)C(C#N)C(=O)Nc1ccc([N+](=O)[O-])cc1` (centres undefined) has a melting point of 193 to 195 °C. For `Cc1c(C(=O)c2ccc(Cl)c(S(N)(=O)=O)c2)c2ccccc2n1C`, the melting point was 247 to 249 °C. With `CC(=NNc1ccc(C2=NNC(=O)CC2)cc1)c1cscn1` the melting point was greater than 300 °C. For `OC(Cc1cc(-c2ccccc2)on1)N1CCOCC1` (centres undefined), the melting point was 134 to 136 °C. `O=c1[nH]ncc2[nH]c(-c3ccc(OC(F)F)c4c3C=CC(C3CC3)O4)cc12` (centres undefined) gave a melting point of 232 to 242 °C. For `COc1ccccc1CS(=O)(=O)Cc1ccccc1OC`, the melting point was 90 to 92 °C. With `O=C(O)c1ccncc1C(=O)c1cc(F)ccc1F` the melting point was 214 to 216 °C. Work on `CC(C)(C)OC(=O)c1n[nH]c2nc(N3CCNCC3)ccc12` yielded a melting point of 190 to 191 °C. Compound `CS(=O)(=O)c1ccc(N2CC(O)(C(F)(F)F)N=C2c2ccncc2)cc1` (centres undefined) has a melting point of 219 °C. With `C[C@@H](n1cnc2ncccc2c1=O)[C@](O)(Cn1cncn1)c1ccc(F)cc1F` the melting point was 210 to 211 °C. In the case of `Fc1ccc(SCCCN2CCN(c3ncc(F)cn3)CC2)cc1`, the melting point is reported as 68 to 70 °C. Compound `COc1ccc(-c2nn(Cc3ccc(OCc4nc(-c5ccccc5)oc4C)cc3)cc2CCC(=O)O)cc1` has a melting point of 137 to 138 °C. In the case of `CCc1c(OC)nc(OC)nc1C(=O)c1cc(C)cc(CO)c1`, the melting point is reported as 101 to 103 °C. Work on `CS(=O)(=O)N1CCC(NC(=O)Nc2ccc(F)cc2)CC1` yielded a melting point of 186 to 188 °C. For `C[C@@H]1CCC[C@H](C)N1CCCNC(=O)CN1C(=O)CCC1(C)C`, the melting point was 86 to 87 °C. Compound `Cc1c(NC(=O)c2ccc(-c3ccccc3)cc2F)ccc2cc(CN3CCCCC3)cnc12` has a melting point of 187 to 188 °C. With `O=[N+]([O-])c1cn2c(n1)OC[C@@H](OCc1ccc(Cl)nc1)C2` the melting point was 191 to 193 °C. `CS(=O)(=O)c1cc(C(F)(F)F)ccc1C(=O)CC(=O)C1CC1` showed a melting point of 123 to 125 °C. For `Nc1ccccc1C(=O)NCCCn1cncn1`, the melting point was 96 to 98 °C. With `COc1ccc2[nH]c3c(c2c1)C[C@@]1(C)C(=O)N(CCBr)C(=O)N1[C@@H]3c1cccc(O)c1` (racemic) the melting point was 299 to 302 °C. Compound `COC(=O)Nc1ccccc1C=Cc1ccccc1Cl` has a melting point of 135 to 137 °C. `COCCn1cc2c(C3C(=O)Nc4ccc(Br)cc43)nc(NCCC3CCNCC3)nc2n1` (centres undefined) gave a melting point of 248 to 251 °C. `Cc1sc2nc3ccc(C(=O)O)cn3c(=O)c2c1C` showed a melting point of 364 to 368 °C. Compound `COc1cc2c(cc1OC)N(Cc1ccccc1)C(=O)CN=C2c1cccc(C(F)(F)F)c1` has a melting point of 175 to 178 °C. With `O=C(C=Cc1ccc(NS(=O)(=O)c2ccccc2)cc1)NO` the melting point was 189 to 191 °C. Work on `COC[C@@H]1CCCN1S(=O)(=O)c1ccc2c(c1)C(=O)C1=NCCCN12` yielded a melting point of 138 to 141 °C. For `CS(=O)(=O)c1ccc2cc[nH]c2c1`, the melting point was 149 to 152 °C. `COc1cccc2c1CN(c1c(F)cc3c(=O)c(C(=O)O)cn(-c4ccc(F)cc4F)c3c1F)C2` showed a melting point of 262 to 271 °C. Compound `CCSC1=NCC(O)CN1` (centres undefined) has a melting point of 106 to 108 °C. Work on `COc1cc2c(cc1OCc1ccccc1)ncc1c(N)nc(-n3ccnc3)cc12` yielded a melting point of 140 °C. Work on `C[Si](C)(Oc1ccc(N)cc1)O[Si](C)(C)Oc1ccc(N)cc1` yielded a melting point of 56 to 57 °C. Work on `CN(C)C(=O)CC1CN=C(c2cc3cc(Oc4ccc(S(C)(=O)=O)nc4)ccc3[nH]2)S1` (centres undefined) yielded a melting point of 190 to 191 °C. `CNC(=O)c1cc(N)cc(N2CCOCC2)c1` showed a melting point of 201 to 204 °C. For `O=S(=O)(F)c1c(F)nc2ccccn12`, the melting point was 108 to 110 °C. `CC(C)C[C@H](NC(=O)Cc1csc2ccccc12)C(=O)N[C@@H](Cc1ccccc1)C(=O)CSCc1ccco1` gave a melting point of 150 to 153 °C. Compound `Oc1c(CN2CCCC2)cc(Nc2ccnc3cc(C(F)(F)F)ccc23)cc1CN1CCCC1` has a melting point of 56 to 58 °C. With `COc1ccc(-n2nc(C)cc2-c2ccccc2)cc1` the melting point was 110 °C. `COc1cc2cc3c(=O)nc[nH]c3nc2cc1OC` gave a melting point of 311 to 312 °C. `O=C(Nc1nc(-c2ccco2)c(-c2ccncc2)s1)c1ccnc(CN2CCC(O)CC2)c1` showed a melting point of 203 to 208 °C. Work on `CCOC(=O)c1nc(CCS(=O)(=O)c2ccc(Cl)cc2)no1` yielded a melting point of 115 to 119 °C. In the case of `Cc1[nH]c(=O)c(C#N)cc1-c1ccc(S(C)(=O)=O)cc1`, the melting point is reported as 312 to 313 °C. `CCN(CC)Cc1ccc2nc(-c3ccccc3F)cc(OCc3ccccc3)c2c1` showed a melting point of 51.2 to 51.5 °C. Compound `CC(=C(Cl)Cl)c1cc(N)c(S(N)(=O)=O)cc1S(N)(=O)=O` has a melting point of 199 to 202 °C. `CCOCc1nnc(C)n1-c1ccc(Cl)cc1C(=O)O` showed a melting point of 173 to 176 °C. Work on `O=Cc1cc(Cc2cccnc2)ccc1O` yielded a melting point of 130 to 132 °C. `CCn1ccnc1S(N)(=O)=O` gave a melting point of 123 to 125 °C. Compound `O=C1c2cccc(O)c2C(=O)c2c(NCCCCO)ccc(O)c21` has a melting point of 168 °C. Work on `CCN1CCN(CCOc2cc3ncc(C#N)c(Nc4cc(OC)c(Cl)cc4Cl)c3cc2OC)CC1` yielded a melting point of 101 to 105 °C. Work on `Cc1cc(NC(=O)c2cnccc2C(F)(F)F)on1` yielded a melting point of 53 to 55 °C. `O=c1ccc2ccc(CC3CO3)cc2o1` (centres undefined) gave a melting point of 110 to 112 °C. Compound `CC(=O)Nc1cc(C(C)(C)C)[nH]n1` has a melting point of 194 to 195 °C. `Clc1cccc(Cl)c1C1=NC2(CO1)COC(c1ccccc1)OC2` (centres undefined) gave a melting point of 158 to 160 °C. With `CC1(C)CCC(C)(C)c2cc(C=C=Cc3ccc(C(=O)O)cc3)ccc21` the melting point was 227 to 228 °C. Compound `Cc1c2c(cc3c(=O)c4ccccc4oc13)CC(C(=O)O)O2` (centres undefined) has a melting point of 297 to 299 °C. Work on `Cc1nc(=O)n(C)cc1Cl` yielded a melting point of 132 to 134 °C. `CN(C)CCCOc1ccc2c(c1)C(c1ccccc1)CC(=O)N2` (centres undefined) gave a melting point of 134 to 136 °C. `Cc1cc(C)cc(SCCC(=O)O)c1` showed a melting point of 69 to 70 °C. Work on `COC(=O)C1(O)CSC(SC(C)=O)=C1Cl` (centres undefined) yielded a melting point of 133 to 135 °C. For `CC(C)(Oc1ccc(Cl)cc1)c1ccnc2ncnn12`, the melting point was 132 to 135 °C. `CCCOCCOc1ccc(-c2ccc3c(c2)C=C(C(=O)O)CCCN3CC(C)C)cc1` gave a melting point of 142 to 144 °C. With `NC(=O)c1ccc(F)c2c1CC([N+](=O)[O-])CO2` (centres undefined) the melting point was 184 to 186 °C. `COc1nc2ccc(Br)cc2cc1Cc1ccccc1` showed a melting point of 83 to 85 °C. With `NC(=O)c1c(I)c(C(=O)NC(CO)CO)c(I)c(C(=O)NC(CO)CO)c1I` the melting point was 246 to 252 °C. For `C#Cc1c(C(C)C)cc(-c2ccccc2)nc1-c1ccc(F)cc1`, the melting point was 121 to 124 °C.
